Measurements as given in US20240270821A1, “GIP/GLP1/GCG TRI-RECEPTOR AGONISTS AND USES THEREOF” (priority 2023, published 2024).
Where two headings read alike, the source gives them in different places.

Columns and labels:
Type in all cases: cell-based
[1] = target: hGcgR (Homo sapiens, UniProt P47871); assay: Functional cAMP activation in the presence of 0.1% casein (no HSA); conditions: read-out: Relative cAMP EC50, hGcgR;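 further: intracellular cAMP rise after 30 min at 37 °C, read by HTRF against a cAMP standard curve, scaled from buffer only (0%) to maximal control ligand response (100%)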
[2] = target: T1, hGLP-1R (Homo sapiens, UniProt P43220); assay: Functional cAMP activity in the presence of 1% HSA; conditions: read-out: cAMP Rel EC50, hGLP-1R
[3] = target: human GcgR (Homo sapiens, UniProt P47871); assay: Functional cAMP activity in the presence of 1% HSA; conditions: read-out: cAMP Rel EC50, hGcgR
[4] = target: T2, hGIPR (Homo sapiens, UniProt P48546); assay: Functional cAMP activation in the presence of 0.1% casein (no HSA); conditions: read-out: Relative cAMP EC50, hGIPR;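 further: intracellular cAMP rise after 30 min at 37 °C read by HTRF against a standard curve, scaled between buffer alone (0%) and top control ligand concentration (100%), four-parameter fit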
T2 sequence (P48546 22-466): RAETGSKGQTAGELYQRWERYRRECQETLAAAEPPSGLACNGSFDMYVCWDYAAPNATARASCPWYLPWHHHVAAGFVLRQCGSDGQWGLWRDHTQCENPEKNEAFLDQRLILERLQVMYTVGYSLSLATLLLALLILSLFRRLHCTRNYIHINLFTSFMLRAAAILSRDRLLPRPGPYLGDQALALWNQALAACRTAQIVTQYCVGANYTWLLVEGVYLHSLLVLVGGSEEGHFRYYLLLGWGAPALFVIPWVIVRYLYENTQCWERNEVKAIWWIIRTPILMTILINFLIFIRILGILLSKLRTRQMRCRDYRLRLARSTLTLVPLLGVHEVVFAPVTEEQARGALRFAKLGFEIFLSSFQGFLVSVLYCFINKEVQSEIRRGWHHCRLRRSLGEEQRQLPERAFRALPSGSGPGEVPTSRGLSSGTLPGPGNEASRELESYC

[5] = target: T2, hGIPR; assay: Functional cAMP activity in the presence of 1% HSA; conditions: read-out: cAMP Rel EC50, hGIPR
[6] = target: T1, hGLP-1R; assay: Functional cAMP activation in the presence of 0.1% casein (no HSA); conditions: read-out: Relative cAMP EC50, hGLP-1R;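 further: intracellular cAMP rise after 30 min at 37 °C read by HTRF, normalized between buffer only (0%) and maximal control ligand (100%), four-parameter variable-slope fit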
[7] = in the presence of 0.1% casein (no HSA), geometric mean

T1 sequence (P43220 24-463): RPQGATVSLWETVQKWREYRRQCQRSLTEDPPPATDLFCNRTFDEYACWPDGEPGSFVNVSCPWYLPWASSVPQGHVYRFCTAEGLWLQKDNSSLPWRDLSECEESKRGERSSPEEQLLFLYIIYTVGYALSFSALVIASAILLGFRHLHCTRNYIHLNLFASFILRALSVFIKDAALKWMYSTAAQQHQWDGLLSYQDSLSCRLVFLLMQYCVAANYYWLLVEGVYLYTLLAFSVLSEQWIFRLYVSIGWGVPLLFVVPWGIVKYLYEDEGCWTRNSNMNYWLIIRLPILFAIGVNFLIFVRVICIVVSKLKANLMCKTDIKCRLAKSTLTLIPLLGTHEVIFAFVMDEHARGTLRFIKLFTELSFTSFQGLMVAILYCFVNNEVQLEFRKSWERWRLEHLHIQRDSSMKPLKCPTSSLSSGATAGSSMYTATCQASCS
hGcgR, sequence (P47871 26-477): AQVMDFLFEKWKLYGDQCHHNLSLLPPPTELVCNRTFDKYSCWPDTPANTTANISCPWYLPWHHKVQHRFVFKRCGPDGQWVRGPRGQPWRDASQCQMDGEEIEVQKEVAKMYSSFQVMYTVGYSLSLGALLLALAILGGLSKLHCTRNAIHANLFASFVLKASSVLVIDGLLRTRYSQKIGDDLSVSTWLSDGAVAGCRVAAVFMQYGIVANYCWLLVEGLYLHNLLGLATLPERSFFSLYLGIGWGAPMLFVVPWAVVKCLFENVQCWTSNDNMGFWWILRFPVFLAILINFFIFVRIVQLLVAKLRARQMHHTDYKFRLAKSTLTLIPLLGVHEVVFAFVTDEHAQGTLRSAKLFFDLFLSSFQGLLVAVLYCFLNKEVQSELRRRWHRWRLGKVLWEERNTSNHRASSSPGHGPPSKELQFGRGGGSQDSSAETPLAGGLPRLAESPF
human GcgR, sequence (P47871 26-477): as above

| SMILES | EC50 [1, 7] [nM] | EC50 [2] [nM] | EC50 [3] [nM] | EC50 [4, 7] [nM] | EC50 [5] [nM] | EC50 [6, 7] [nM] | EC50 [1] [nM] | EC50 [4] [nM] | EC50 [6] [nM] |
| --- | --- | --- | --- | --- | --- | --- | --- | --- | --- |
| CC[C@H](C)[C@H](NC(=O)[C@H](Cc1ccccc1)NC(=O)[C@H](C)NC(=O)C(C)(C)NC(=O)[C@H](CCC(N)=O)NC(=O)[C@H](C)NC(=O)[C@H](CCCCNC(=O)COCCOCCNC(=O)COCCOCCNC(=O)CC[C@H](NC(=O)CCCCCCCCCCCCCCCCC(=O)O)C(=O)O)NC(=O)[C@H](CCCCN)NC(=O)[C@H](CC(=O)O)NC(=O)[C@H](CC(C)C)NC(=O)[C@](C)(CC(C)C)NC(=O)[C@H](CCCCN)NC(=O)[C@H](CO)NC(=O)[C@H](Cc1ccccc1)NC(=O)[C@H](CC(=O)O)NC(=O)[C@H](CO)NC(=O)[C@@H](NC(=O)[C@H](Cc1ccccc1)NC(=O)[C@@H](NC(=O)CNC(=O)[C@H](CCC(N)=O)NC(=O)C(C)(C)NC(=O)[C@@H](N)Cc1ccc(O)cc1)[C@@H](C)O)[C@@H](C)O)C(=O)N[C@@H](CCC(=O)O)C(=O)N[C@@H](Cc1ccc(O)cc1)C(=O)N[C@@H](CC(C)C)C(=O)N[C@@H](CC(C)C)C(=O)N[C@@H](C)C(=O)NCC(=O)NCC(=O)N1CCC[C@H]1C(=O)N[C@@H](CO)C(=O)N[C@@H](CO)C(=O)NCC(=O)N[C@@H](CCC(=O)O)C(=O)N1CCC[C@H]1C(=O)N1CCC[C@H]1C(=O)N1CCC[C@H]1C(=O)N[C@@H](CO)C(=O)N[C@@H](CCC(=O)O)C(=O)NCC(N)=O [Example 25] | 6.8 | 520 | 939 | 0.128 | 19.8 | 3.34 |  |  |  |
| CC[C@H](C)[C@H](NC(=O)[C@H](Cc1ccccc1)NC(=O)[C@H](CCC(N)=O)NC(=O)C(C)(C)NC(=O)[C@H](CCC(N)=O)NC(=O)[C@H](C)NC(=O)[C@H](CCCCNC(=O)COCCOCCNC(=O)CC[C@H](NC(=O)CCCCCCCCCCCCCCCCCCC(=O)O)C(=O)O)NC(=O)[C@H](CCCCN)NC(=O)[C@H](CC(=O)O)NC(=O)[C@H](CC(C)C)NC(=O)[C@](C)(CC(C)C)NC(=O)[C@H](CCCCN)NC(=O)[C@H](CO)NC(=O)[C@H](Cc1ccccc1)NC(=O)[C@H](CC(=O)O)NC(=O)[C@H](CO)NC(=O)[C@@H](NC(=O)[C@H](Cc1ccccc1)NC(=O)[C@@H](NC(=O)CNC(=O)[C@H](CCC(N)=O)NC(=O)C(C)(C)NC(=O)[C@@H](N)Cc1ccc(O)cc1)[C@@H](C)O)[C@@H](C)O)C(=O)N[C@@H](CCC(=O)O)C(=O)N[C@@H](Cc1c[nH]c2ccccc12)C(=O)N[C@@H](CC(C)C)C(=O)N[C@@H](CC(C)C)C(=O)N[C@@H](CCC(=O)O)C(=O)NCC(=O)NCC(=O)N1CCC[C@H]1C(=O)N[C@@H](CO)C(=O)N[C@@H](CO)C(=O)NCC(=O)N[C@@H](C)C(=O)N1CCC[C@H]1C(=O)N1CCC[C@H]1C(=O)N1CCC[C@H]1C(=O)N[C@@H](CO)C(=O)N[C@@H](CCC(=O)O)C(=O)NCC(N)=O [Example 38] | 9.5 | 884 | 2770 | 0.304 | 102 |  |  |  |  |
| CC[C@H](C)[C@H](NC(=O)[C@H](Cc1ccccc1)NC(=O)[C@H](C)NC(=O)C(C)(C)NC(=O)[C@H](CCC(N)=O)NC(=O)[C@H](C)NC(=O)[C@H](CCCCNC(=O)CC[C@H](NC(=O)CC[C@H](NC(=O)CCCCCCCCCCCCCCCCC(=O)O)C(=O)O)C(=O)O)NC(=O)[C@H](CCCCN)NC(=O)[C@H](CC(=O)O)NC(=O)[C@H](CC(C)C)NC(=O)[C@H](CC(C)C)NC(=O)[C@@H](NC(=O)[C@H](CO)NC(=O)[C@H](Cc1ccc(O)cc1)NC(=O)[C@H](CC(=O)O)NC(=O)[C@H](CO)NC(=O)[C@@H](NC(=O)[C@](C)(Cc1ccccc1F)NC(=O)[C@@H](NC(=O)CNC(=O)[C@H](CCC(N)=O)NC(=O)C(C)(C)NC(=O)[C@@H](N)Cc1ccc(O)cc1)[C@@H](C)O)[C@@H](C)O)[C@@H](C)CC)C(=O)N[C@@H](CCC(=O)O)C(=O)N[C@@H](Cc1ccc(O)cc1)C(=O)N[C@@H](CC(C)C)C(=O)N[C@@H](CCC(=O)O)C(=O)N[C@@H](CCC(=O)O)C(=O)NCC(=O)NCC(=O)N1CCC[C@H]1C(=O)N[C@@H](CO)C(=O)N[C@@H](CO)C(=O)NCC(=O)N[C@@H](CCC(=O)O)C(=O)N1CCC[C@H]1C(=O)N1CCC[C@H]1C(=O)N1CCC[C@H]1C(=O)N[C@@H](CO)C(N)=O [Example 432] |  | 41.7 | 384 |  |  |  | 1.6 | 0.0297 | 0.431 |
| CC[C@H](C)[C@H](NC(=O)[C@H](CC(C)C)NC(=O)[C@H](Cc1ccc(O)cc1)NC(=O)[C@H](CCC(=O)O)NC(=O)[C@@H](NC(=O)[C@H](Cc1ccccc1)NC(=O)[C@H](C)NC(=O)[C@](C)(Cc1ccncc1)NC(=O)[C@H](CCC(N)=O)NC(=O)[C@H](C)NC(=O)[C@H](CCCCNC(=O)COCCOCCNC(=O)CC[C@H](NC(=O)CCCCCCCCCCCCCCCCC(=O)O)C(=O)O)NC(=O)[C@H](CCCCN)NC(=O)[C@H](CC(=O)O)NC(=O)[C@H](CC(C)C)NC(=O)[C@](C)(CC(C)C)NC(=O)[C@H](CCCN)NC(=O)[C@H](CO)NC(=O)[C@H](Cc1ccncc1)NC(=O)[C@H](CC(=O)O)NC(=O)[C@H](CO)NC(=O)[C@@H](NC(=O)[C@H](Cc1ccccc1)NC(=O)[C@@H](NC(=O)CNC(=O)[C@H](CCC(N)=O)NC(=O)C(C)(C)NC(=O)[C@@H](N)Cc1ccc(O)cc1)[C@@H](C)O)[C@@H](C)O)[C@@H](C)CC)C(=O)N[C@@H](CCC(=O)O)C(=O)NCC(=O)NCC(=O)N[C@@H](CCC(=O)O)C(=O)N[C@@H](CO)C(=O)N[C@@H](CO)C(=O)NCC(=O)N[C@@H](C)C(=O)N1CCC[C@H]1C(=O)N1CCC[C@H]1C(=O)N1CCC[C@H]1C(=O)N[C@@H](CO)C(=O)NCC(=O)N[C@@H](CO)C(N)=O [Example 791] | 2.36 | 980 | 456 | 0.979 | 143 |  |  |  |  |
| CC[C@H](C)[C@H](NC(=O)[C@H](CC(C)C)NC(=O)[C@H](Cc1ccc(O)cc1)NC(=O)[C@H](CCC(=O)O)NC(=O)[C@@H](NC(=O)[C@H](Cc1ccccc1)NC(=O)[C@H](C)NC(=O)[C@](C)(Cc1ccncc1)NC(=O)[C@H](CCC(N)=O)NC(=O)[C@H](C)NC(=O)[C@H](CCCCNC(=O)COCCOCCNC(=O)CC[C@H](NC(=O)CCCCCCCCCCCCCCCCC(=O)O)C(=O)O)NC(=O)[C@H](CCCCN)NC(=O)[C@H](CC(=O)O)NC(=O)[C@H](CC(C)C)NC(=O)[C@](C)(CC(C)C)NC(=O)[C@H](CCC(N)=O)NC(=O)[C@H](CO)NC(=O)[C@H](Cc1ccncc1)NC(=O)[C@H](CC(=O)O)NC(=O)[C@H](CO)NC(=O)[C@@H](NC(=O)[C@H](Cc1ccccc1)NC(=O)[C@@H](NC(=O)CNC(=O)[C@H](CCC(N)=O)NC(=O)C(C)(C)NC(=O)[C@@H](N)Cc1ccc(O)cc1)[C@@H](C)O)[C@@H](C)O)[C@@H](C)CC)C(=O)N[C@@H](CCC(=O)O)C(=O)NCC(=O)NCC(=O)N[C@@H](CCC(=O)O)C(=O)N[C@@H](CO)C(=O)N[C@@H](CO)C(=O)NCC(=O)N[C@@H](C)C(=O)N1CCC[C@H]1C(=O)N1CCC[C@H]1C(=O)N1CCC[C@H]1C(=O)N[C@@H](CO)C(=O)NCC(=O)N[C@@H](CO)C(N)=O [Example 793] | 3.79 | 559 | 1660 | 0.834 |  | 3.19 |  |  |  |
| CC[C@H](C)[C@H](NC(=O)[C@H](Cc1ccccc1)NC(=O)[C@H](C)NC(=O)[C@](C)(Cc1ccncc1)NC(=O)[C@H](CCC(N)=O)NC(=O)[C@H](C)NC(=O)[C@H](CCCCNC(=O)CC[C@H](NC(=O)CC[C@H](NC(=O)CCCCCCCCCCCCCCCCC(=O)O)C(=O)O)C(=O)O)NC(=O)[C@H](CCCN)NC(=O)[C@H](CC(=O)O)NC(=O)[C@H](CC(C)C)NC(=O)[C@](C)(CC(C)C)NC(=O)[C@H](CCC(N)=O)NC(=O)[C@H](CO)NC(=O)[C@H](Cc1ccncc1)NC(=O)[C@H](CC(=O)O)NC(=O)[C@H](CO)NC(=O)[C@@H](NC(=O)[C@H](Cc1ccccc1)NC(=O)[C@@H](NC(=O)CNC(=O)[C@H](CCC(N)=O)NC(=O)C(C)(C)NC(=O)[C@@H](N)Cc1ccc(O)cc1)[C@@H](C)O)[C@@H](C)O)C(=O)N[C@@H](CCC(=O)O)C(=O)N[C@@H](Cc1ccc(O)cc1)C(=O)N[C@@H](CC(C)C)C(=O)N[C@H](C(=O)N[C@@H](CCC(=O)O)C(=O)N[C@H](C)C(=O)NCC(=O)N1CCC[C@H]1C(=O)N[C@@H](CO)C(=O)N[C@@H](CO)C(=O)NCC(=O)N[C@@H](C)C(=O)N1CCC[C@H]1C(=O)N1CCC[C@H]1C(=O)N1CCC[C@H]1C(=O)N[C@@H](CCC(=O)O)C(=O)NCC(=O)N[C@@H](CO)C(N)=O)[C@@H](C)CC [Example 1021] | 4.39 | 174 | 588 | 0.22 |  | 1.3 |  |  |  |
